{"source": "paper PMC8903829", "about": "(eLife, 2022)", "key": {"[1]": {"test_system": "Scn8a^N1768D/+ mice", "assay": "Modified 6 Hz psychomotor seizure assay", "assay_type": "in vivo, mouse", "protocol": "Phenytoin was formulated in physiologic saline and was administered intraperitoneally (i.p.) using a 25-gauge needle at a dose volume of 10 mL/kg. All compounds were administered 2 hr prior to electrical seizure induction for all seizure models employed in this study.\nScn8a^N1768D/+heterozygous mice were tested at 5 weeks of age (p35). The modified 6 Hz seizure assay in Scn8a^N1768D/+heterozygous mice was adapted from the traditional 6 Hz assay psychomotor seizure assay to provide a measure of in vivo on target (NaV1.6 mediated) efficacy ([Barton et al., 2001]). The modified assay used a low frequency (6 Hz) but long-duration stimulation (3 s) to induce seizures. […] An electroshock (6 Hz, 12 mA) was delivered for 3 s (at 0.3-ms pulse interval) by corneal electrodes (Electro Convulsive Therapy Unit 57,800 from Ugo Basile). Immediately prior to the electroshock, the animals’ eyes were anesthetized with a drop of Alcaine (0.5% proparacaine hydrochloride).\nAn animal was considered protected in the assay upon prevention of GTC with hindlimb extension and was then scored ‘0’. An animal displaying GTC with hindlimb extension was considered not protected and is then scored ‘1’. The experimenter scoring the seizure behavior was blinded to the treatment."}, "[2]": {"assay": "Bioanalytical assessment of plasma and brain concentrations after 6 Hz assay", "assay_type": "in vivo, mouse", "conditions": "mouse, oral, SCN8A mouse 6HZ", "protocol": "(§1) Approximately 0.5 mL of blood was collected from each mouse at the end of the assay via cardiac puncture under deep anesthesia. The blood samples were collected in a syringe and transferred to tubes containing EDTA. Blood was stored at 4 °C until centrifuged within 30 min of collection. Plasma was harvested and placed on dry ice and stored in a freezer set to maintain a temperature of –70°C to –80°C until analysis. Brains were harvested immediately after blood collection and placed on dry ice prior to storage in a freezer set to maintain a temperature of –70°C to –80°C until analysis.\n(§2) Extraction of plasma samples was carried out by protein precipitation using acetonitrile. Plasma samples (50 µL) were mixed with 50 µL of internal standard (IS) solution in water followed by addition of 10 µL of concentrated ortho-phosphoric acid and 200 µL of acetonitrile. Samples were vortexed for 30 seconds, centrifuged at 13,000 rpm for 20 min, decanted in to a 96-well plate, and further centrifuged at 4000 rpm for 20 min. The samples were analyzed by UHPLC-ESI-MS/MS as described below.\n(§3) Prior to extraction, pre-weighed whole brains were homogenized in 1:1 acetonitrile/water (v/v) (4 mL per mouse brain) using an IKA T18 ULTRA-TURRAX Homogenizer at the setting of 4 for approximately 2 min. The homogenate was centrifuged at 13,000 rpm for 20 min and 50 µL of the supernatant were treated exactly as described above for plasma samples. […]\n(§4) Samples were analyzed by UHPLC-ESI MS/MS using a TQ-5500 Sciex triple quadrupole mass spectrometer equipped with a Shimadzu Nexera UHPLC pump and auto-sampler system using an ACE C18 PFP, 2.50 × 50 mm, 1.7 µm particle size column and gradient elution consisting of solvent A (0.1% formic acid in water) and solvent B (0.1% formic acid in acetonitrile) starting at 20% B from 0 min to 0.4 min and then increased to 100% B from 0.4 min to 0.6 min. At 2.0 min, the mobile phase composition was switched back to […] for 1 min. The flow rate used throughout the experiment was […]. […] The UHPLC-ESI MS/MS system was controlled by Analyst 1.6.\n(§5) Sample concentrations were determined using a linear calibration function, weighted 1 /X, generated by the regression of analyte to IS peak area ratios in the standard samples to their respective concentrations. Acceptance criteria for the analytical run required that the back calculated values of the standards and the QC samples fell within ±20% of their nominal values, except for the lowest standard or lower limit of quantitation (LLOQ), for which the acceptance criterion was ±25%. At least 6 out of 12 standard points had to show back-calculated values within ±20% of their nominal concentrations for the calibration to be accepted. At least three QC samples, one at each level, had to show back-calculated values within ±20% of their nominal concentrations for the whole sample batch to be valid."}, "[3]": {"test_system": "Sprague Dawley rats", "assay": "Observation of potential adverse behavior (behavioral signs) in the rat DC-MES studies", "assay_type": "in vivo", "conditions": "rat", "protocol": "Animals were observed by the scientist(s) responsible for dosing for the first 30 min after dosing for and again at the time of assay (2 hr post dose) for signs of abnormal behavior."}, "[4]": {"assay": "Bioanalytical assessment of plasma and brain concentrations after mouse DC-MES assay", "assay_type": "in vivo", "conditions": "mouse, oral, WT mouse DC-MES acute", "protocol": "as §1, §2, §3, §4, §5"}}, "note": "pEC50: −log10 of the molar value."}
{"compound": "NC(=O)N1c2ccccc2C=Cc2ccccc21", "note": "[carbamazepine, Carbamazepine, reference compound]", "values": [{"measurement": "pEC50", "setting": "[1]; Mus musculus, Scn8a^N1768D/+ 6 Hz model, 2 hr post dose (oral; phenytoin i.p.), read-out: brain EC50", "result": 5.03}, {"measurement": "SCN8A mouse 6HZ Fraction of animals seizing", "setting": "[1]; Study15064, 3 mg/kg", "result": 0.5}, {"measurement": "SCN8A mouse 6HZ Fraction of animals seizing", "setting": "[1]; Study15064, 10 mg/kg", "result": 0.75}, {"measurement": "SCN8A mouse 6HZ Fraction of animals seizing", "setting": "[1]; Study16152, 3 mg/kg", "result": 0.75}, {"measurement": "SCN8A mouse 6HZ Fraction of animals seizing", "setting": "[1]; Study16152, 10 mg/kg", "result": 0.667}, {"measurement": "SCN8A mouse 6HZ Fraction of animals seizing", "setting": "[1]; Study16152, 30 mg/kg", "result": 0}, {"measurement": "SCN8A mouse 6HZ Fraction of animals seizing", "setting": "[1]; Study16162, 3 mg/kg", "result": 0.8}, {"measurement": "SCN8A mouse 6HZ Fraction of animals seizing", "setting": "[1]; Study16162, 10 mg/kg", "result": 0.4}, {"measurement": "SCN8A mouse 6HZ Fraction of animals seizing", "setting": "[1]; Study16162, 100 mg/kg", "result": 0}, {"measurement": "concentration at 2 h", "setting": "[2]; Scn8a N1768D/+, brain, 3 mg/kg, Study15064, 3 mg/kg, read-out: Mean [Brain]", "result": 0.943, "unit": "µM"}, {"measurement": "concentration at 2 h", "setting": "[2]; Scn8a N1768D/+, brain, 3 mg/kg, Study16152, 3 mg/kg, read-out: Mean [Brain]", "result": 2.7, "unit": "µM"}, {"measurement": "concentration at 2 h", "setting": "[2]; Scn8a N1768D/+, brain, 3 mg/kg, Study16162, 3 mg/kg, read-out: Mean [Brain]", "result": 4.89, "unit": "µM"}, {"measurement": "concentration at 2 h", "setting": "[2]; Scn8a N1768D/+, brain, 10 mg/kg, Study15064, 10 mg/kg, read-out: Mean [Brain]", "result": 2.24, "unit": "µM"}, {"measurement": "concentration at 2 h", "setting": "[2]; Scn8a N1768D/+, brain, 10 mg/kg, Study16152, 10 mg/kg, read-out: Mean [Brain]", "result": 11.4, "unit": "µM"}, {"measurement": "concentration at 2 h", "setting": "[2]; Scn8a N1768D/+, brain, 10 mg/kg, Study16162, 10 mg/kg, read-out: Mean [Brain]", "result": 15.7, "unit": "µM"}, {"measurement": "concentration at 2 h", "setting": "[2]; Scn8a N1768D/+, brain, 30 mg/kg, Study16152, 30 mg/kg, read-out: Mean [Brain]", "result": 40.7, "unit": "µM"}, {"measurement": "concentration at 2 h", "setting": "[2]; Scn8a N1768D/+, brain, 100 mg/kg, Study16162, 100 mg/kg, read-out: Mean [Brain]", "result": 130, "unit": "µM"}, {"measurement": "concentration at 2 h", "setting": "[2]; Scn8a N1768D/+, plasma, 10 mg/kg, Study16162, 10 mg/kg, read-out: Mean [Palsma]", "result": 20.7, "unit": "µM"}, {"measurement": "concentration at 2 h", "setting": "[2]; Scn8a N1768D/+, plasma, 100 mg/kg, Study16162, 100 mg/kg, read-out: Mean [Palsma]", "result": 154, "unit": "µM"}, {"measurement": "concentration at 2 h", "setting": "[2]; Scn8a^N1768D/+, plasma, 3 mg/kg, Study15064, 3 mg/kg, read-out: Mean [Palsma]", "result": 1.14, "unit": "µM"}, {"measurement": "concentration at 2 h", "setting": "[2]; Scn8a^N1768D/+, plasma, 3 mg/kg, Study16152, 3 mg/kg, read-out: Mean [Palsma]", "result": 4.75, "unit": "µM"}, {"measurement": "concentration at 2 h", "setting": "[2]; Scn8a^N1768D/+, plasma, 3 mg/kg, Study16162, 3 mg/kg, read-out: Mean [Palsma]", "result": 7.46, "unit": "µM"}, {"measurement": "concentration at 2 h", "setting": "[2]; Scn8a^N1768D/+, plasma, 10 mg/kg, Study15064, 10 mg/kg, read-out: Mean [Palsma]", "result": 5.96, "unit": "µM"}, {"measurement": "concentration at 2 h", "setting": "[2]; Scn8a^N1768D/+, plasma, 10 mg/kg, Study16152, 10 mg/kg, read-out: Mean [Palsma]", "result": 15.4, "unit": "µM"}, {"measurement": "concentration at 2 h", "setting": "[2]; Scn8a^N1768D/+, plasma, 30 mg/kg, Study16152, 30 mg/kg, read-out: Mean [Palsma]", "result": 48.7, "unit": "µM"}, {"measurement": "minimal plasma concentration provoking behavioral signs (BSC)", "setting": "[3]", "result": 110, "unit": "µM"}, {"measurement": "concentration at 2 h", "setting": "[4]; brain, 10 mg/kg, Study17131, 10 mg/kg, read-out: Mean [Brain]", "result": 18.3, "unit": "µM"}, {"measurement": "concentration at 2 h", "setting": "[4]; brain, 10 mg/kg, Study17134, 10 mg/kg, read-out: Mean [Brain]", "result": 17.4, "unit": "µM"}, {"measurement": "concentration at 2 h", "setting": "[4]; brain, 30 mg/kg, Study17131, 30 mg/kg, read-out: Mean [Brain]", "result": 43.1, "unit": "µM"}, {"measurement": "concentration at 2 h", "setting": "[4]; brain, 30 mg/kg, Study17134, 30 mg/kg, read-out: Mean [Brain]", "result": 46, "unit": "µM"}, {"measurement": "concentration at 2 h", "setting": "[4]; brain, 100 mg/kg, Study17131, 100 mg/kg, read-out: Mean [Brain]", "result": 115, "unit": "µM"}, {"measurement": "concentration at 2 h", "setting": "[4]; plasma, 10 mg/kg, Study17131, 10 mg/kg, read-out: Mean [Palsma]", "result": 13.6, "unit": "µM"}, {"measurement": "concentration at 2 h", "setting": "[4]; plasma, 10 mg/kg, Study17134, 10 mg/kg, read-out: Mean [Palsma]", "result": 16.6, "unit": "µM"}, {"measurement": "concentration at 2 h", "setting": "[4]; plasma, 30 mg/kg, Study17131, 30 mg/kg, read-out: Mean [Palsma]", "result": 34.5, "unit": "µM"}, {"measurement": "concentration at 2 h", "setting": "[4]; plasma, 30 mg/kg, Study17134, 30 mg/kg, read-out: Mean [Palsma]", "result": 52.5, "unit": "µM"}, {"measurement": "concentration at 2 h", "setting": "[4]; plasma, 100 mg/kg, Study17131, 100 mg/kg, read-out: Mean [Palsma]", "result": 91.3, "unit": "µM"}]}
